Read-outs that look alike come from different tables or passages of the source.
Legend:
[1] = target: T1, c-Met kinase domain recombinant protein (Homo sapiens, UniProt P08581); experiment: biochemical; details: read-out: Inhibition rate at 10 μM (%)
T1 construct: 50 μL diluted solution of c-Met kinase domain recombinant protein in reaction buffer was added to initiate the reaction
How it was run: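 Recombinant c-Met kinase domain phosphorylated immobilised Poly(Glu,Tyr)4:1 for 1 h at 37 °C in 50 mM HEPES pH 7.4, 50 mM MgCl2, 0.5 mM MnCl2, 0.2 mM Na3VO4, 1 mM DTT with ATP. Product measured by anti-phosphotyrosine PY99 ELISA (HRP, 490 nm), giving percent inhibition; ATP-free wells served as control.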

[2] = target: T1, c-Met kinase domain recombinant protein; experiment: biochemical; details: for inhibition at 0.1 µM: read-out: Average inhibition rate at 0.1 μM (%); for inhibition at 1 µM: read-out: Average inhibition rate at 1 μM (%); for inhibition at 10 µM: read-out: Average inhibition rate at 10 μM (%)
How it was run: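 IC50 came from a four-parameter fit of inhibition rates measured by anti-phosphotyrosine (PY99/HRP) ELISA at 490 nm. The reaction ran 1 hour at 37° C with 5 μM ATP, c-Met kinase domain protein and Poly(Glu,Tyr)4:1-coated wells, in HEPES pH 7.4 buffer containing MgCl2, MnCl2, Na3VO4 and DTT.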

[3] = system: MKN45 cell; experiment: Test III: growth inhibition of gastric tumor cell MKN45 (SRB); type: cell-based; details: Homo sapiens; for inhibition at 0.2 µM: MKN-45, read-out: Cell proliferation inhibition rate at 200 nM (%), MKN45, 200 nM
Experimental: (§1) Assays on the growth inhibition of the compounds against gastric tumor cell MKN45, non-small cell carcinoma EBC-1 cell (both are MET persistent activated cell lines due to MET gene amplification, and are Met dependent tumor cell lines, MKN45 cell was purchased from JCRB, Japan, EBC-1 cell was purchased from ATCC, USA) were detected using sulforhodamine B (SRB) staining. […] After incubation with compound for 72 hours, the incubation was terminated, adherent cells were retained and medium was discarded, 10% (w/v) trichloroacetic acid (100 μL pre well) was added, the cells were fixed at 4° C. for 1 hour, then rinsed with distilled water for 5 times, after dried at room temperature, SRB solution (4 mg/mL, dissolved in 1% glacial acetic acid) was added at 100 μL per well, incubated and stained at room temperature for 15 minutes, then rinsed with 1% glacial acetic acid for 5 times to remove any unbound SRB, dried at room temperature, then 10 mM Tris solution was added at 100 μL per well, the optical density (OD) value at 515 nm was measured using VERSMax microplate reader.
(§2) Experiments were conducted in duplicates. IC50 value was calculated by fitting the data for a four parameter fit using inhibition curve, the results are shown below in Table 2.

[4] = system: EBC-1 cell; experiment: Test III: growth inhibition of non-small cell carcinoma EBC-1 cell (SRB); type: cell-based; details: Homo sapiens, EBC-1, 72 h; for inhibition at 0.2 µM: read-out: Cell proliferation inhibition rate at 200 nM (%); for inhibition at 1 µM: read-out: Cell proliferation inhibition rate at 1 μM (%)
Experimental: as §1, §2

[5] = system: human lung cancer EBC-1 xenograft; experiment: Test IV: human non-small cell lung cancer EBC-1 xenograft growth in nude mice; type: in vivo
Experimental: EBC-1 cells were implanted subcutaneously in the right axilla of nude mice at 5×10^6 cells per mouse, xenograft developed thereby was passaged in nude mice for 3 generations prior to use. Tumor tissue at rapid growth phase was taken, minced under sterile condition into pieces of about 1.5 mm^3, then implanted subcutaneously in the right axilla of nude mice.
Xenografted tumor diameters were measured twice per week, and body weights of the mice were measured at the same time. Tumor Volume (TV) was calculated by the following equation: TV=1/2×a×b^2, wherein a, b refers to the length and width, respectively. Based on the measurement, Relative Tumor Volume (RTV) was calculated by the following equation: RTV=Vt/V0, wherein V0 is the tumor volume measured when divided for administration (i.e., do), Vt is the tumor volume measured at each timepoint.

[6] = MKN-45, 72 h, read-out: Cell proliferation inhibition rate at 1 μM (%)
[7] = MKN-45, read-out: Cell proliferation inhibition rate at 1 μM (%), MKN45, 1 μM, 72 hours

T1 sequence (P08581 1078-1345 limits assumed): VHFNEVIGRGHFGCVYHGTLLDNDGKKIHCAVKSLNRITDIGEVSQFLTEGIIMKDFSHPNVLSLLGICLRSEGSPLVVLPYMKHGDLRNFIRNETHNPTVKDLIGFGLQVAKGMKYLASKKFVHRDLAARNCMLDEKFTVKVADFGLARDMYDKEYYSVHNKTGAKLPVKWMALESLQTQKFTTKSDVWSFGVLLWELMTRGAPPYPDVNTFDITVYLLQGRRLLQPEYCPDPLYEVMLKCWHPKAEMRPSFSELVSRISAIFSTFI

Compound | inhibition at 10 µM [1] | IC50 [2] | inhibition at 0.1 µM [2] | inhibition at 1 µM [2] | inhibition at 10 µM [2] | inhibition at 1 µM [3, 6] | inhibition at 1 µM [3, 7] | inhibition at 0.2 µM ([3]; 72 hours) | inhibition at 0.2 µM [4] | inhibition at 1 µM [4] | TV (mm^3, mean ± SD) d21 ([5]; 50 mg/kg po qd/21) | Weight (g) d21 ([5]; 50 mg/kg po qd/21) | GI (%) ([5]; 50 mg/kg po qd/21, d21) | RTV (mean ± SD) ([5]; 50 mg/kg po qd/21, d21) | T/C (%) ([5]; 50 mg/kg po qd/21, day 21) | TV (mm^3, mean ± SD) d21 ([5]; 100 mg/kg po qd/21) | Weight (g) d21 ([5]; 100 mg/kg po qd/21) | GI (%) ([5]; 100 mg/kg po qd/21, d21) | RTV (mean ± SD) ([5]; 100 mg/kg po qd/21, d21) | T/C (%) ([5]; 100 mg/kg po qd/21, day 21)
Cn1cc(-c2cnc3cnn(S(=O)(=O)c4cnc5ccc(-c6ccsc6)cn45)c3c2)cn1 [Example 72, 1-{[6-(3-thiophene)-imidazo[1,2-a]pyridine]-3-sulfonyl}-6-[(1-methyl)-4-pyrazolyl]-1-H-pyrazolo[4,3-b]pyridine] | 80.9% | 0.04 ± 0.04 nM | 70.1% | 80.3% | 76.5% | 72.8% | – | – | – | – | – | – | – | – | – | – | – | – | – | –
CN(C)C(=O)c1ccc(-c2ccc3ncc(S(=O)(=O)n4ncc5ncc(-c6cnn(C)c6)cc54)n3c2)cc1 [Example 73, 1-{[6-(4-dimethylaminocarbonylphenyl)-imidazo[1,2-a]pyridine]-3-sulfonyl}-6-[(1-methyl)-4-pyrazolyl]-1-H-pyrazolo[4,3-b]pyridine] | 59.6% | – | 78% | 72.8% | 76.9% | – | 14.4% | – | – | – | – | – | – | – | – | – | – | – | – | –
Cn1cc(-c2cnc3cnn(S(=O)(=O)c4cnc5ccc(-c6cnn(C7CCN(C(=O)OC(C)(C)C)CC7)c6)cn45)c3c2)cn1 [Example 76, 1-{(6-{{1-[(1-t-butoxycarbonyl)-4-piperidinyl]}-4-pyrazolyl}-imidazo[1,2-a]pyridine)-3-sulfonyl}-6-[(1-methyl)-4-pyrazolyl]-1-H-pyrazolo[4,3-b]pyridine] | > 76.3% | – | 78% | 75.5% | 78.3% | – | 14.9% | – | – | – | – | – | – | – | – | – | – | – | – | –
Cn1cc(-c2cnc3cnn(S(=O)(=O)c4cnc5ccc(-c6ccc(F)cc6)cn45)c3c2)cn1 [Example 81, 1-{[6-(4-fluorophenyl)-imidazo[1,2-a]pyridine]-3-sulfonyl}-6-[(1-methyl)-4-pyrazolyl]-1-H-pyrazolo[4,3-b]pyridine] | > 68.7% | – | 72.9% | 73.6% | 80.2% | – | 24.7% | – | – | – | – | – | – | – | – | – | – | – | – | –
Cc1ccc(-c2ccc3ncc(S(=O)(=O)n4ncc5ncc(-c6cnn(C)c6)cc54)n3c2)cc1 [Example 90, 1-{[6-(4-methylphenyl)-imidazo[1,2-a]pyridine]-3-sulfonyl}-6-[(1-methyl)-4-pyrazolyl]-1-H-pyrazolo[4,3-b]pyridine] | > 72.2% | – | 69% | 83% | 81.1% | – | 17.6% | – | – | – | – | – | – | – | – | – | – | – | – | –
Cn1cc(-c2cnc3cnn(S(=O)(=O)c4cnc5ccc(-c6ccc(CN7CCOCC7)cc6)cn45)c3c2)cn1 [Example 91, 1-{[6-(4-morpholinomethylphenyl)-imidazo[1,2-a]pyridine]-3-sulfonyl}-6-[(1-methyl)-4-pyrazolyl]-1-H-pyrazolo[4,3-b]pyridine] | > 69.4% | – | 77.3% | 85.5% | 74.1% | – | 72.9% | – | – | – | – | – | – | – | – | – | – | – | – | –
COc1ccccc1-c1ccc2ncc(S(=O)(=O)n3ncc4ncc(-c5cnn(C)c5)cc43)n2c1 [Example 97, 1-{[6-(2-methoxyphenyl)-imidazo[1,2-a]pyridine]-3-sulfonyl}-6-[(1-methyl)-4-pyrazolyl]-1-H-pyrazolo[4,3-b]pyridine] | > 63.8% | 0.5 ± 0.1 nM | 51.7% | 62.7% | 65.5% | 67.8% | – | – | – | – | – | – | – | – | – | – | – | – | – | –
Cn1cc(-c2cnc3cnn(S(=O)(=O)c4cnc5ccc(-c6ccc(F)nc6)cn45)c3c2)cn1 [Example 99, 1-{[6-(2-fluoro-5-pyridinyl)-imidazo[1,2-a]pyridine]-3-sulfonyl}-6-[(1-methyl)-4-pyrazolyl]-1-H-pyrazolo[4,3-b]pyridine] | > 73.3% | – | 55.5% | 66.2% | 71.8% | – | 67.9% | 48.5% | – | – | – | – | – | – | – | – | – | – | – | –
Cn1cc(-c2cnc3cnn(S(=O)(=O)c4cnc5ccc(-c6cccc(C#N)c6)cn45)c3c2)cn1 [Example 100, 1-{[6-(3-cyanophenyl)-imidazo[1,2-a]pyridine]-3-sulfonyl}-6-[(1-methyl)-4-pyrazolyl]-1-H-pyrazolo[4,3-b]pyridine] | > 60.4% | – | 83.7% | 87.3% | 85.4% | – | 66.6% | 63.8% | – | – | – | – | – | – | – | – | – | – | – | –
CNC(=O)c1ccc(-c2ccc3ncc(S(=O)(=O)n4ncc5ncc(-c6cnn(CCN(C)C)c6)cc54)n3c2)cc1F [Example 102, 1-{(6-(3-fluoro-4-methylaminocarbonylphenyl)-imidazo[1,2-a]pyridine)-3-sulfonyl}-6-[(2-dimethylaminoethyl)-4-pyrazolyl]-1-H-pyrazolo[4,3-b]pyridine] | > 65.5% | – | 73.7% | 85.3% | 95.4% | – | 67.9% | 63.8% | – | – | – | – | – | – | – | – | – | – | – | –
CN1CCN(C(=O)c2ccc(-c3cnc4cnn(S(=O)(=O)c5cnc6ccc(-c7cnn(C)c7)cn56)c4c3)cc2)CC1 [Example 142, 1-{(6-[(1-methyl)-4-pyrazolyl]-imidazo[1,2-a]pyridine)-3-sulfonyl}-6-[4-(4-methylpiperazine-1-carbonyl)phenyl]-1-H-pyrazolo[4,3-b]pyridine] | – | 0.5 ± 0.1 nM | 89.4% | 91.3% | – | – | – | – | 92.1% | 92.6% | 259 ± 421 ^ mm^3 | 21.0 g | 90.65% | 2.23 ± 3.89 | 16.91% | 21 ± 34 mm^3 | 20.9 g | 106.70% | 0.14 ± 0.21 | 1.05%
CC(C)N1CCC(n2cc(-c3cnc4cnn(S(=O)(=O)c5cnc6ccc(-c7cnn(C)c7)cn56)c4c3)cn2)CC1 [Example 145, 1-{(6-[(1-methyl)-4-pyrazolyl]-imidazo[1,2-a]pyridine)-3-sulfonyl}-6-{(1-[(1-isopropyl)-4-piperidinyl]}-4-pyrazolyl}-1-H-pyrazolo[4,3-b]pyridine] | – | 0.6 ± 0.1 nM | 90.6% | 87.1% | – | – | – | – | 92.4% | 92.8% | 36 ± 49 mm^3 | 19.9 g | 106.14% | 0.31 ± 0.50 | 2.36% | 8 ± 13 mm^3 | 19.1 g | 107.77% | 0.05 ± 0.09 | 0.40%

Reference: US9988381B2, “Five-member-heterocycle fused pyridine compounds, method of producing the same, and use thereof” (SHANGHAI INSTITUTE OF MATERIA MEDICA, CHINESE ACADEMY OF …, priority 2013, dated 2018)
